What was measured:
[1] = Resistance index, ratio of IC50 for antiplasmodial activity against multidrug-resistant Plasmodium falciparum K1 to IC50 for antiplasmodial activity against chloroquine-sensitive Plasmodium falciparum 3D7; type: functional
[2] = Inhibition of hemin (unknown origin) assessed as inhibition of heme polymerization by measuring reduction in beta-hematin formation at 1 mM measured after 48 hrs by microplate reader assay
[3] = Resistance index, ratio of IC50 for antiplasmodial activity against chloroquine-resistant Plasmodium falciparum 7G8 to IC50 for antiplasmodial activity against chloroquine-sensitive Plasmodium falciparum 3D7; type: functional
Plasmodium falciparum [4] = experiment: Antiplasmodial activity against multidrug-resistant Plasmodium falciparum Dd2 assessed as inhibition of parasite growth incubated for 3 days by HRP2-ELISA; type: functional, organism-based; conditions: Dd2, 72 h
Plasmodium falciparum [5] = experiment: Antiplasmodial activity against chloroquine-resistant Plasmodium falciparum 7G8 assessed as inhibition of parasite growth incubated for 3 days by HRP2-ELISA; type: functional, organism-based; conditions: 7G8, 72 h
[6] = Cytotoxicity against human HepG2 cells assessed as cell growth inhibition incubated for 1 day by neutral red assay; type: toxicity, cell-based
[7] = Selectivity index, ratio of IC50 for cytotoxicity against human HepG2 cells to IC50 for antiplasmodial activity against chloroquine-sensitive Plasmodium falciparum 3D7; type: toxicity, cell-based; conditions: read-out: Ratio IC50
[8] = Resistance index, ratio of IC50 for antiplasmodial activity against multidrug-resistant Plasmodium falciparum Dd2 to IC50 for antiplasmodial activity against chloroquine-sensitive Plasmodium falciparum 3D7; type: functional
Plasmodium falciparum [9] = experiment: Antiplasmodial activity against multidrug-resistant Plasmodium falciparum K1 assessed as inhibition of parasite growth incubated for 3 days by HRP2-ELISA; type: functional, organism-based; conditions: K1, 72 h
Plasmodium falciparum [10] = experiment: Antiplasmodial activity against chloroquine-sensitive Plasmodium falciparum 3D7 assessed as inhibition of parasite growth incubated for 3 days by HRP2-ELISA; type: functional, organism-based; conditions: 3D7, 72 h
Plasmodium falciparum [11] = experiment: Potency index, ratio of chloroquine IC50 to test compound IC50 for antiplasmodial activity against multidrug-resistant Plasmodium falciparum K1 assessed as inhibition of parasite growth incubated for 3 days by HRP2-ELISA; type: functional; conditions: time 3 day
Plasmodium falciparum [12] = experiment: Potency index, ratio of chloroquine IC50 to test compound IC50 for antiplasmodial activity against multidrug-resistant Plasmodium falciparum Dd2 assessed as inhibition of parasite growth incubated for 3 days by HRP2-ELISA; type: functional; conditions: time 3 day
Plasmodium falciparum [13] = experiment: Potency index, ratio of chloroquine IC50 to test compound IC50 for antiplasmodial activity against chloroquine-resistant Plasmodium falciparum 7G8 assessed as inhibition of parasite growth incubated for 3 days by HRP2-ELISA; type: functional; conditions: time 3 day
Plasmodium falciparum [14] = experiment: Potency index, ratio of chloroquine IC50 to test compound IC50 for antiplasmodial activity against chloroquine-sensitive Plasmodium falciparum 3D7 assessed as inhibition of parasite growth incubated for 3 days by HRP2-ELISA; type: functional; conditions: time 3 day

Row | SMILES | Ratio IC50 [1] | inhibition [2] | Ratio IC50 [3] | IC50 (Plasmodium falciparum [4]) | IC50 (Plasmodium falciparum [5]) | IC50 at 1 day [6] | selectivity ratio [7] | Ratio IC50 [8] | IC50 (Plasmodium falciparum [9]) | IC50 (Plasmodium falciparum [10]) | Ratio IC50 (Plasmodium falciparum [11]) | Ratio IC50 (Plasmodium falciparum [12]) | Ratio IC50 (Plasmodium falciparum [13]) | Ratio IC50 (Plasmodium falciparum [14])
1 | Cc1nccc2c1[nH]c1cc(OCc3cn(CCNc4ccnc5cc(Cl)ccc45)nn3)ccc12 | 0.5 | > 75% | 0.7 | 76.2 nM | 44.2 nM | 6300 nM | 110 | 1.3 | 33.5 nM | 57.3 nM |  |  |  | 
2 | COc1ccc2c3ccnc(C)c3n(Cc3cn(-c4ccnc5cc(Cl)ccc45)nn3)c2c1 |  | < 50% |  | 1820 nM |  | 19700 nM | 21.9 | 2 |  | 899 nM |  |  |  | 
3 | Cc1nc(Cn2cc(COc3ccnc4cc(Cl)ccc34)nn2)cc2c1[nH]c1ccccc12 |  | 50% |  | 5420 nM |  | > 100000 nM | > 9.22 | 0.4 |  | 10800 nM |  |  |  | 
4 | COc1ccc2c(c1)[nH]c1c(C)nccc12 [HARMINE] |  |  |  |  |  | > 250000 nM |  |  |  |  |  |  |  | 
5 | Cc1nccc2c1[nH]c1cc(OCc3cn(-c4ccnc5cc(Cl)ccc45)nn3)ccc12 | 3.1 | > 75% | 2 | 203 nM | 195 nM | 6400 nM | 66.8 | 2.1 | 299 nM | 95.8 nM |  |  |  | 
6 | COc1ccc2c3ccnc(C)c3n(CCC(=O)NCCCCNc3ccnc4cc(Cl)ccc34)c2c1 |  | < 50% |  |  |  | > 25000 nM | > 723 |  |  |  |  |  |  | 
7 | Cc1nccc2c1[nH]c1cc(OCCNC(=O)CNc3ccnc4cc(Cl)ccc34)ccc12 |  | 50% |  | 309 nM |  | 15900 nM | 68.1 | 1.3 |  | 234 nM |  |  |  | 
8 | Cc1nccc2c1[nH]c1ccc(OCc3cn(CCNc4ccnc5cc(Cl)ccc45)nn3)cc12 | 2.1 | > 75% | 2.1 | 160 nM | 144 nM | 15000 nM | 228 | 2.4 | 141 nM | 65.7 nM |  |  |  | 
9 | COc1ccc2c3ccnc(C)c3n(CCNC(=O)CNc3ccnc4cc(Cl)ccc34)c2c1 |  | 50% |  | 16.2 nM | 7.4 nM | 8900 nM | 4450 |  | 24.8 nM | 2 nM | 15.9 | 22.5 | 29.8 | 5.5
10 | COc1ccc2c3ccnc(C)c3n(Cc3cn(CCNc4ccnc5cc(Cl)ccc45)nn3)c2c1 |  | 50% |  | 204 nM | 28.6 nM | 14000 nM | 829 |  | 163 nM | 11.6 nM |  |  |  | 
11 | Cc1nccc2c1[nH]c1ccc(OCc3cn(-c4ccnc5cc(Cl)ccc45)nn3)cc12 |  | > 75% |  | 7110 nM |  | 5500 nM | 1.5 | 1.9 |  | 3660 nM |  |  |  | 
12 | Cc1nc(CNC(=O)CNc2ccnc3cc(Cl)ccc23)cc2c1[nH]c1ccccc12 | 3.7 | < 50% | 2.1 | 46.1 nM | 28.2 nM | 18600 nM | 1430 | 3.5 | 48.8 nM | 13 nM |  |  |  | 
13 | CCN(CC)CCCC(C)Nc1ccnc2cc(Cl)ccc12 (configuration not stated) |  | > 75% |  |  |  |  |  |  |  |  |  |  |  | 
14 | Cc1nccc2c1[nH]c1ccc(OCCNC(=O)CNc3ccnc4cc(Cl)ccc34)cc12 |  | < 50% |  | 535 nM |  | > 20000 nM | > 66 | 1.7 |  | 303 nM |  |  |  | 
15 | O=C(CNc1ccnc2cc(Cl)ccc12)NCc1nccc2c1[nH]c1ccccc12 |  | < 50% |  | 171 nM |  | 7800 nM | 144 | 3.1 |  | 54 nM |  |  |  | 
16 | COc1ccc2c3ccnc(C)c3n(CCC(=O)NCCNc3ccnc4cc(Cl)ccc34)c2c1 |  | < 50% |  |  |  | 12800 nM | 795 |  |  |  |  |  |  | 
17 | Clc1ccc2c(OCc3cn(Cc4nccc5c4[nH]c4ccccc45)nn3)ccnc2c1 |  | < 50% |  | > 27800 nM |  | > 25000 nM | > 0.9 |  |  | > 28000 nM |  |  |  | 

Source: ChEMBL document CHEMBL5113394, “Design and synthesis of harmiquins, harmine and chloroquine hybrids as potent antiplasmodial agents” (Eur J Med Chem, 2022)
